The source of these data is patent US6653455B1, “Crystallization of doxorubicin hydrochloride” (Mercian Corporation, priority 1998, dated 2003).

The structures appear in SMILES notation. Counter-ions that a name gives are not always drawn.

Data set [1] is described as follows: Average particle diameter, microscopic method (Heywood circle-corresponding diameter). Type of data set: physicochemical. Particulars: 10 typical crystals on photograph, hydrochloride. The source says:
The average particle diameter is shown by a diameter of a circle having the same area as an injected area of the particle, a so-called Heywood diameter (circle-corresponding diameter) according to a microscopic method (injected image). A small amount of the crystals was put on a slide glass, and 1 to 2 drops of a hydrophilic surfactant (sesquioleic acid sorbitan) were fallen thereon to disperse them. It was photographed by means of a polarization microscope (photographing lens: 3.3 magnifications, objective lens: 20 magnifications) equipped with a photographing device. Optional 10 pieces of the typical crystals were selected on the photograph to measure a long diameter and a short diameter thereof An (projected) area of the particle was shown by long diameter×short diameter, and the particle diameter was shown by a diameter of a circle having the same area as that obtained above.

The nature of data set [2]: Hygroscopicity, cup method (weight change). The format is physicochemical. As to conditions: weight-increasing rate, 25° C., 50 to 60% RH, 15 minutes; crystals dried at 40° C. under vacuum; hydrochloride. The procedure:
Determined by the following cup method. To be specific, about 15 to 20 mg of the sample was put in a cylindrical cup having a diameter of 6 mm and a depth of 6 mm and left standing at a fixed temperature (25° C.) and relative humidity (50 to 60% RH) for 15 minutes to measure a weight change, whereby the hygroscopicity was evaluated.
In the following respective examples, a weight-increasing rate of 0.40% or more is shown by an evaluation criterion that the hygroscopicity is large (−); a weight-increasing rate of 0.20% or more and less than 0.40% is shown by an evaluation criterion that the hygroscopicity is ;intermediate (±); and a weight-increasing rate of less than 0.20% is shown by an evaluation criterion that the hygroscopicity is small: (+).

As for `COc1cccc2c1C(=O)c1c(O)c3c(c(O)c1C2=O)C[C@@](O)(C(=O)CO)C[C@@H]3O[C@H]1C[C@H](N)[C@H](O)[C@H](C)O1` [Example 40, doxorubicin hydrochloride], the Average particle diameter in data set [1] was determined as 18 μm. Further, in data set [2], the Hygroscopicity result is “± (a weight-increasing rate of 0.20% or more and less than 0.40% is shown by an evaluation criterion that the hygroscopicity is ;intermediate (±))”.
The compound `COc1cccc2c1C(=O)c1c(O)c3c(c(O)c1C2=O)C[C@@](O)(C(=O)CO)C[C@@H]3O[C@H]1C[C@H](N)[C@H](O)[C@H](C)O1` [Example 30, doxorubicin hydrochloride] had an Average particle diameter in data set [1] of 39 μm. Also, in data set [2], the Hygroscopicity result is reported as “+ (a weight-increasing rate of less than 0.20% is shown by an evaluation criterion that the hygroscopicity is small: (+))”.
In data set [1], `COc1cccc2c1C(=O)c1c(O)c3c(c(O)c1C2=O)C[C@@](O)(C(=O)CO)C[C@@H]3O[C@H]1C[C@H](N)[C@H](O)[C@H](C)O1` [Example 35, doxorubicin hydrochloride] gave an Average particle diameter of 20 μm. Also, in data set [2], the Hygroscopicity result was “± (a weight-increasing rate of 0.20% or more and less than 0.40% is shown by an evaluation criterion that the hygroscopicity is ;intermediate (±))”.
`COc1cccc2c1C(=O)c1c(O)c3c(c(O)c1C2=O)C[C@@](O)(C(=O)CO)C[C@@H]3O[C@H]1C[C@H](N)[C@H](O)[C@H](C)O1` [Example 32, doxorubicin hydrochloride]: the Average particle diameter in data set [1] came out at 34 μm. For the same compound, the Hygroscopicity result in data set [2] is “+ (a weight-increasing rate of less than 0.20% is shown by an evaluation criterion that the hygroscopicity is small: (+))”.
Compound `COc1cccc2c1C(=O)c1c(O)c3c(c(O)c1C2=O)C[C@@](O)(C(=O)CO)C[C@@H]3O[C@H]1C[C@H](N)[C@H](O)[C@H](C)O1` [Example 42, doxorubicin hydrochloride] showed an Average particle diameter in data set [1] of 34 μm. Further, the Hygroscopicity result in data set [2] is given as “+ (a weight-increasing rate of less than 0.20% is shown by an evaluation criterion that the hygroscopicity is small: (+))”.
In data set [1], `COc1cccc2c1C(=O)c1c(O)c3c(c(O)c1C2=O)C[C@@](O)(C(=O)CO)C[C@@H]3O[C@H]1C[C@H](N)[C@H](O)[C@H](C)O1` [Example 4, doxorubicin hydrochloride] showed an Average particle diameter of under 4 μm. For the same compound, the Hygroscopicity result in data set [2] is “− (a weight-increasing rate of 0.40% or more is shown by an evaluation criterion that the hygroscopicity is large (−))”.
For `COc1cccc2c1C(=O)c1c(O)c3c(c(O)c1C2=O)C[C@@](O)(C(=O)CO)C[C@@H]3O[C@H]1C[C@H](N)[C@H](O)[C@H](C)O1` [Example 21, doxorubicin hydrochloride], in that order: 54 μm and “+ (a weight-increasing rate of less than 0.20% is shown by an evaluation criterion that the hygroscopicity is small: (+))”.
Compound `COc1cccc2c1C(=O)c1c(O)c3c(c(O)c1C2=O)C[C@@](O)(C(=O)CO)C[C@@H]3O[C@H]1C[C@H](N)[C@H](O)[C@H](C)O1` [Example 49, doxorubicin hydrochloride] came in with an Average particle diameter in data set [1] of 71 μm. Besides, the Hygroscopicity entry in data set [2] is “+ (a weight-increasing rate of less than 0.20% is shown by an evaluation criterion that the hygroscopicity is small: (+))”.
For `COc1cccc2c1C(=O)c1c(O)c3c(c(O)c1C2=O)C[C@@](O)(C(=O)CO)C[C@@H]3O[C@H]1C[C@H](N)[C@H](O)[C@H](C)O1` [Example 20, doxorubicin hydrochloride], in that order: 7 μm and “+ (a weight-increasing rate of less than 0.20% is shown by an evaluation criterion that the hygroscopicity is small: (+))”.
The compound `COc1cccc2c1C(=O)c1c(O)c3c(c(O)c1C2=O)C[C@@](O)(C(=O)CO)C[C@@H]3O[C@H]1C[C@H](N)[C@H](O)[C@H](C)O1` [Example 38, doxorubicin hydrochloride] displayed an Average particle diameter in data set [1] of 28 μm. Further, the Hygroscopicity result in data set [2] is “+ (a weight-increasing rate of less than 0.20% is shown by an evaluation criterion that the hygroscopicity is small: (+))”.
For `COc1cccc2c1C(=O)c1c(O)c3c(c(O)c1C2=O)C[C@@](O)(C(=O)CO)C[C@@H]3O[C@H]1C[C@H](N)[C@H](O)[C@H](C)O1` [Example 28, doxorubicin hydrochloride], in that order: 37 μm and “+ (a weight-increasing rate of less than 0.20% is shown by an evaluation criterion that the hygroscopicity is small: (+))”.
For `COc1cccc2c1C(=O)c1c(O)c3c(c(O)c1C2=O)C[C@@](O)(C(=O)CO)C[C@@H]3O[C@H]1C[C@H](N)[C@H](O)[C@H](C)O1` [Example 22, doxorubicin hydrochloride], in that order: 47 μm and “+ (a weight-increasing rate of less than 0.20% is shown by an evaluation criterion that the hygroscopicity is small: (+))”.
`COc1cccc2c1C(=O)c1c(O)c3c(c(O)c1C2=O)C[C@@](O)(C(=O)CO)C[C@@H]3O[C@H]1C[C@H](N)[C@H](O)[C@H](C)O1` [Example 16, doxorubicin hydrochloride] showed an Average particle diameter in data set [1] of under 4 μm. For the same compound, the Hygroscopicity result in data set [2] is “± (a weight-increasing rate of 0.20% or more and less than 0.40% is shown by an evaluation criterion that the hygroscopicity is ;intermediate (±))”.
`COc1cccc2c1C(=O)c1c(O)c3c(c(O)c1C2=O)C[C@@](O)(C(=O)CO)C[C@@H]3O[C@H]1C[C@H](N)[C@H](O)[C@H](C)O1` [Example 47, doxorubicin hydrochloride] yielded an Average particle diameter in data set [1] of 60 μm. For the same compound, the Hygroscopicity entry in data set [2] is “± (a weight-increasing rate of 0.20% or more and less than 0.40% is shown by an evaluation criterion that the hygroscopicity is ;intermediate (±))”.
`COc1cccc2c1C(=O)c1c(O)c3c(c(O)c1C2=O)C[C@@](O)(C(=O)CO)C[C@@H]3O[C@H]1C[C@H](N)[C@H](O)[C@H](C)O1` [Example 23, doxorubicin hydrochloride] came in with an Average particle diameter in data set [1] of 39 μm. In addition, the Hygroscopicity result in data set [2] is “± (a weight-increasing rate of 0.20% or more and less than 0.40% is shown by an evaluation criterion that the hygroscopicity is ;intermediate (±))”.
`COc1cccc2c1C(=O)c1c(O)c3c(c(O)c1C2=O)C[C@@](O)(C(=O)CO)C[C@@H]3O[C@H]1C[C@H](N)[C@H](O)[C@H](C)O1` [Example 19, doxorubicin hydrochloride] yielded an Average particle diameter in data set [1] of 17 μm. The Hygroscopicity result in data set [2] was “± (a weight-increasing rate of 0.20% or more and less than 0.40% is shown by an evaluation criterion that the hygroscopicity is ;intermediate (±))”.
In turn, `COc1cccc2c1C(=O)c1c(O)c3c(c(O)c1C2=O)C[C@@](O)(C(=O)CO)C[C@@H]3O[C@H]1C[C@H](N)[C@H](O)[C@H](C)O1` [Example 59, doxorubicin hydrochloride] yielded an Average particle diameter in data set [1] of under 4 μm. Further, in data set [2], the Hygroscopicity result is “− (a weight-increasing rate of 0.40% or more is shown by an evaluation criterion that the hygroscopicity is large (−))”.
On to `COc1cccc2c1C(=O)c1c(O)c3c(c(O)c1C2=O)C[C@@](O)(C(=O)CO)C[C@@H]3O[C@H]1C[C@H](N)[C@H](O)[C@H](C)O1` [Example 34, doxorubicin hydrochloride], for which the Average particle diameter in data set [1] is listed as 23 μm. The Hygroscopicity result in data set [2] is “± (a weight-increasing rate of 0.20% or more and less than 0.40% is shown by an evaluation criterion that the hygroscopicity is ;intermediate (±))”.
As to `COc1cccc2c1C(=O)c1c(O)c3c(c(O)c1C2=O)C[C@@](O)(C(=O)CO)C[C@@H]3O[C@H]1C[C@H](N)[C@H](O)[C@H](C)O1` [Example 48, doxorubicin hydrochloride], the Average particle diameter in data set [1] came out at 89 μm. In addition, the Hygroscopicity entry in data set [2] is given as “+ (a weight-increasing rate of less than 0.20% is shown by an evaluation criterion that the hygroscopicity is small: (+))”.
Compound `COc1cccc2c1C(=O)c1c(O)c3c(c(O)c1C2=O)C[C@@](O)(C(=O)CO)C[C@@H]3O[C@H]1C[C@H](N)[C@H](O)[C@H](C)O1` [Example 45, doxorubicin hydrochloride] gave an Average particle diameter in data set [1] of 46 μm. Moreover, in data set [2], the Hygroscopicity result is listed as “+ (a weight-increasing rate of less than 0.20% is shown by an evaluation criterion that the hygroscopicity is small: (+))”.
Compound `COc1cccc2c1C(=O)c1c(O)c3c(c(O)c1C2=O)C[C@@](O)(C(=O)CO)C[C@@H]3O[C@H]1C[C@H](N)[C@H](O)[C@H](C)O1` [Example 24, doxorubicin hydrochloride] yielded an Average particle diameter in data set [1] of 51 μm. In addition, the Hygroscopicity result in data set [2] is “+ (a weight-increasing rate of less than 0.20% is shown by an evaluation criterion that the hygroscopicity is small: (+))”.
